In ChEMBL document CHEMBL5356934, “Antibacterial activities of anthraquinones: structure-activity relationships and action mechanisms” (RSC Med Chem, 2023):
In brackets after ≈: the same amount, converted by molar mass.

Assays:
[1] = system: Enterococcus faecium; experiment: Antibacterial activity against vancomycin-resistant Enterococcus faecium; format: functional
[2] = system: Staphylococcus aureus; experiment: Antibacterial activity against methicillin-resistant Staphylococcus aureus J-108; format: functional
[3] = system: Staphylococcus aureus; experiment: Antibacterial activity against methicillin-susceptible Staphylococcus aureus assessed as reduction in bacterial growth; format: functional
[4] = system: Enterococcus faecium; experiment: Antibacterial activity against vancomycin susceptible Enterococcus faecium119-39A assessed as inhibition of bacterial growth by broth microdilution method; format: functional; conditions: 119-39A
[5] = system: Pseudomonas aeruginosa; experiment: Antibacterial activity against wild type Pseudomonas aeruginosa ATCC 27853 after 24 hrs by microbroth dilution method; format: functional
[6] = system: Staphylococcus aureus; experiment: Antibacterial activity against Staphylococcus aureus ATCC 25923 assessed as reduction in microbial growth after 24 hrs by spectrophotometric method; format: functional
[7] = system: Salmonella typhimurium; experiment: Antibacterial activity against Salmonella typhimurium ATCC 1255 assessed as reduction in bacterial growth; format: functional, Salmonella enterica subsp. enterica serovar Typhimurium; conditions: Salmonella enterica
[8] = system: Staphylococcus aureus; experiment: Antibacterial activity against Staphylococcus aureus NCTC 11994 assessed as reduction in bacterial growth; format: functional
[9] = system: Staphylococcus aureus; experiment: Antibacterial activity against Staphylococcus aureus assessed as diameter of inhibition zone; format: functional
[10] = system: Bacillus cereus; experiment: Antibacterial activity against Bacillus cereus; format: functional
[11] = system: Staphylococcus aureus; experiment: Antibacterial activity against methicillin-resistant Staphylococcus aureus CGMCC1.12483 assessed as reduction in bacterial growth by CLSI protocol based broth microdilution method; format: functional
[12] = system: Vibrio campbellii; experiment: Antibacterial activity against Vibrio campbellii MCCC E333 assessed as cell growth inhibition measured after 24 hrs by resazurin dye based assay; format: functional
[13] = system: Vibrio rotiferianus; experiment: Antibacterial activity against Vibrio rotiferianus MCCC E385 assessed as cell growth inhibition measured after 24 hrs by resazurin dye based assay; format: functional
[14] = system: Staphylococcus aureus; experiment: Antibacterial activity against methicillin-resistant Staphylococcus aureus ATCC 43300 assessed as reduction in bacterial growth by CLSI protocol based broth microdilution method; format: functional
[15] = system: Streptococcus mutans; experiment: Antibacterial activity against Streptococcus mutans ATCC 25175 assessed as inhibition of bacterial growth incubated for 18 to 20 hrs by CLSI protocol based broth microdilution method; format: functional; conditions: time 18-20 hrs
[16] = system: Porphyromonas gingivalis; experiment: Antibacterial activity against Porphyromonas gingivalis ATCC 33277 assessed as reduction in bacterial growth incubated for 24 hrs by micro-dilution method; format: functional
[17] = system: Salmonella; experiment: Antibacterial activity against Salmonella ATCC 12022 assessed as inhibition of bacterial growth by standard broth microdilution method; format: functional
[18] = system: Staphylococcus aureus; experiment: Antibacterial activity against Staphylococcus aureus ATCC 25923 assessed as reduction in microbial growth incubated for 24 hrs by broth micro-dilution method; format: functional
[19] = system: Escherichia coli; experiment: Antibacterial activity against Escherichia coli ATCC 8730 assessed as reduction in bacterial growth; format: functional
[20] = system: Vibrio harveyi; experiment: Antimicrobial activity against Vibrio harveyi assessed as bacterial growth inhibition; format: functional
[21] = system: Aeromonas hydrophila; experiment: Antibacterial activity against Aeromonas hydrophila; format: functional
[22] = system: Escherichia coli; experiment: Antibacterial activity against Escherichia coli assessed as zone of inhibition; format: functional
[23] = system: Cryptococcus neoformans; experiment: Antifungal activity against Cryptococcus neoformans assessed as reduction in microbial growth; format: functional
[24] = system: Klebsiella aerogenes; experiment: Antimicrobial activity against Enterobacter aerogenes ATCC 45102; format: functional
[25] = system: Bacillus cereus; experiment: Antibacterial activity against Bacillus cereus assessed as reduction in microbial growth after 18 hrs by MTT based broth dilution method; format: functional
[26] = system: Epidermophyton floccosum; experiment: Antifungal activity against Epidermophyton floccosum measured after 96 hrs by two fold serial dilution technique; format: functional
[27] = system: Rothia kristinae; experiment: Antibacterial activity against Rothia kristinae assessed as reduction in microbial growth; format: functional
[28] = system: Proteus vulgaris; experiment: Antimicrobial activity against Proteus vulgaris assessed as inhibition of bacterial growth; format: functional
[29] = system: Pseudomonas aeruginosa; experiment: Antibacterial activity against Pseudomonas aeruginosa assessed as zone of inhibition; format: functional
[30] = system: Staphylococcus aureus; experiment: Antibacterial activity against Staphylococcus aureus 4125 assessed as reduction in bacterial growth; format: functional
[31] = system: Staphylococcus epidermidis; experiment: Antibacterial activity against Staphylococcus epidermidis assessed as reduction in microbial growth; format: functional
[32] = system: Escherichia coli; experiment: Antibacterial activity against Escherichia coli assessed as reduction in bacterial growth incubated for 12 hrs by microdilution method; format: functional
[33] = system: Staphylococcus aureus; experiment: Antibacterial activity against Staphylococcus aureus assessed as reduction in microbial growth; format: functional
[34] = system: Aeromonas hydrophila; experiment: Antibacterial activity against Aeromonas hydrophila IB101; format: functional
[35] = system: Mycobacterium tuberculosis; experiment: Antimycobacterial activity against Mycobacterium tuberculosis H37Ra assessed as reduction in microbial growth; format: functional
[36] = system: Candida albicans; experiment: Antifungal activity against Candida albicans assessed as fungal growth inhibition by broth microdilution method; format: functional
[37] = system: Pseudomonas aeruginosa; experiment: Antibacterial activity against Pseudomonas aeruginosa assessed as reduction in bacterial growth incubated for 24 hrs by broth microdilution method; format: functional
[38] = system: Escherichia coli; experiment: Antimicrobial activity against Escherichia coli assessed as reduction in microbial growth; format: functional
[39] = system: Neisseria gonorrhoeae; experiment: Antibacterial activity against resistant Neisseria gonorrhoeae assessed inhibition of bacterial growth; format: functional
[40] = system: Trichophyton rubrum; experiment: Antifungal activity against Trichophyton rubrum assessed as fungal growth inhibition; format: functional
[41] = system: Haemophilus parasuis; experiment: Antibacterial activity against Haemophilus parasuis clinical isolates assessed as bacterial growth inhibition measured after 16 to 24 hrs by broth microdilution assay; format: functional; conditions: Glaesserella parasuis; time 16-24 hrs
[42] = system: Staphylococcus aureus; experiment: Antibacterial activity against Staphylococcus aureus ATCC 25923 assessed as reduction in bacterial growth incubated for 24 hrs by serial dilution method; format: functional
[43] = system: Pseudomonas aeruginosa; experiment: Antibacterial activity against Pseudomonas aeruginosa TISTR 781 assessed as reduction in bacterial growth by broth microdilution method; format: functional
[44] = system: Bacillus sp.; experiment: Antibacterial activity against Bacillus sp. assessed as inhibition of bacterial growth; format: functional; conditions: Bacillus sp. (in: firmicutes)
[45] = system: Streptococcus suis; experiment: Antibacterial activity against Streptococcus suis ATCC 700794 assessed as bacterial growth inhibition incubated for 24 hrs by broth micro-dilution method; format: functional
[46] = system: Staphylococcus aureus; experiment: Antibiofilm activity against Staphylococcus aureus CMCC 26003 assessed as reduction in live bacteria in biofilm formation incubated for 24 hrs by crystal violet staining based analysis; format: functional
[47] = system: Escherichia coli; experiment: Antibacterial activity against Escherichia coli ATCC 25922 assessed as bacterial growth inhibition measured after 48 hrs by resazurin assay; format: functional
[48] = system: Bacillus cereus; experiment: Antibacterial activity against Bacillus cereus TISTR 687 incubated for 16 to 18 hrs by Mueller-Hinton broth based two-fold serial dilution method; format: functional; conditions: time 16-18 hrs
[49] = system: Pseudomonas aeruginosa; experiment: Antibacterial activity against Pseudomonas aeruginosa TISTR 781 assessed as inhibition of bacterial growth incubated for 16 to 18 hrs by Mueller-Hinton broth based two-fold serial dilution method; format: functional; conditions: time 16-18 hrs
[50] = system: Mycobacterium tuberculosis; experiment: Anti-mycobacterial activity against Mycobacterium tuberculosis H37Ra assessed as reduction in bacterial growth […]; format: functional
[51] = system: Pseudomonas aeruginosa; experiment: Antibacterial activity against Pseudomonas aeruginosa assessed as reduction in bacterial growth by broth microdilution method; format: functional
[52] = system: Salmonella typhimurium; experiment: Antibacterial activity against Salmonella typhimurium TISTR 780 assessed as inhibition of bacterial growth incubated for 16 to 18 hrs by Mueller-Hinton broth based two-fold serial dilution method; format: functional, Salmonella enterica subsp. enterica serovar Typhimurium; conditions: Salmonella enterica, time 16-18 hrs
[53] = system: Staphylococcus aureus; experiment: Antibacterial activity against methicillin resistant Staphylococcus aureus ATCC 33592 incubated for 24 hrs by Mueller-Hinton broth based assay; format: functional
[54] = system: Bacillus subtilis; experiment: Antibacterial activity against Bacillus subtilis ATCC 6051 assessed as reduction in bacterial growth incubated for 24 hrs by broth micro-dilution method; format: functional
[55] = biological target: Acetylcholinesterase (Homo sapiens, UniProt P22303); experiment: Inhibition of Acetylcholinesterase (unknown origin)
Chain of Acetylcholinesterase (P22303 whole entry): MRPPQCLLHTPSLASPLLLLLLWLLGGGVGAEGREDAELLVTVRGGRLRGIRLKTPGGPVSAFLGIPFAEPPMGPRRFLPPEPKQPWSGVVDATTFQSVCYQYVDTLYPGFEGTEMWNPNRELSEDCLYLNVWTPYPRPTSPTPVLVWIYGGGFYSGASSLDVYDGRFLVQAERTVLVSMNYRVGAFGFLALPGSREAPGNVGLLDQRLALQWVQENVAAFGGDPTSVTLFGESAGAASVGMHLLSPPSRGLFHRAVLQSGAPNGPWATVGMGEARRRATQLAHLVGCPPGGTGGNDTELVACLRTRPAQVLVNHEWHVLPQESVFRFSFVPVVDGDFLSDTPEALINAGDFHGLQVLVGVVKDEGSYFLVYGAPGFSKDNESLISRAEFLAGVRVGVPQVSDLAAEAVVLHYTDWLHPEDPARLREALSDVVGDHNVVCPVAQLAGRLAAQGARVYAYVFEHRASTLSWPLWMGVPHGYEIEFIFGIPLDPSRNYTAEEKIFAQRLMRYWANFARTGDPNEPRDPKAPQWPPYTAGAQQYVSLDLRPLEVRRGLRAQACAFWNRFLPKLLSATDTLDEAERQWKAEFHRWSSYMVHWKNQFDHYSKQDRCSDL

COc1cc2oc3cc(O)c(OC)c(CC=C(C)C)c3c(=O)c2c(O)c1CC=C(C)C
MIC [1]: 6.25 µg/mL (≈ 14.7 µM) | MIC [2]: 3.13 µg/mL (≈ 7.37 µM) | MIC [3]: 6.25 µg/mL (≈ 14.7 µM) | MIC [4]: 6.25 µg/mL (≈ 14.7 µM)

CCCOc1ccc(N2CCCCC2)c2c(=O)c3ccccc3sc12
MIC [5]: 32 µg/mL (≈ 90.5 µM)

COc1cc(C=O)c2c(=O)c3ccccc3oc2c1O
MIC [5]: 32 µg/mL (≈ 118 µM)

CN(CCO)CC(O)COc1cccc2c(=O)c3ccccc3oc12 (centres undefined)
MIC [6]: < 20 µg/mL

COc1cc(C)c2c(c1[C@@H]1O[C@@H](CO)C(O)[C@@H](O)[C@@H]1OC(=O)/C=C\c1ccc(O)cc1)CC(CC(C)=O)=CC2=O (some centres undefined)
MIC [7]: 0.18 µM (≈ 0.0995 µg/mL) | MIC [8]: 0.72 µM (≈ 0.398 µg/mL)

COc1cc2c(c(O)c1OC)c(=O)c1ccc(O)cc1n2C
diameter of the inhibition zone (DIZ) [9]: 9.58 mm

COC1=CC(=O)c2c(O)c3c(c(O)c2C1=O)CC(C)(O)C(OC(C)=O)C3 (centres undefined)
MIC [10]: 0.0088 µM (≈ 0.00319 µg/mL)

C=CCNCC(O)COc1ccc2c(=O)c3cccc(C)c3oc2c1 (centres undefined)
MIC [6]: < 20 µg/mL

COc1c(O)c(C=O)cc2c(=O)c3ccccc3oc12
MIC [5]: 32 µg/mL (≈ 118 µM)

COC1=CC(=O)c2c(cc3c(c2O)CC(O)C(C)(O)C3)C1=O (centres undefined)
MIC [10]: 0.312 µM (≈ 0.0949 µg/mL)

CN(CCC(O)COc1cccc2c(=O)c3ccc(Cl)cc3oc12)C(C)(C)C (centres undefined)
MIC [6]: < 20 µg/mL

COc1ccccc1CNCCC(O)COc1cccc2c(=O)c3ccccc3oc12 (centres undefined)
MIC [6]: < 20 µg/mL

CC1=CC2c3c(O)c(O)c4oc5cc(O)cc(O)c5c(=O)c4c3[C@H](c3cc(O)c(O)c4oc5cc(O)cc(O)c5c(=O)c34)C2C(C)(C)C1 (some centres undefined)
MIC [11]: 3.9 µg/mL (≈ 5.98 µM) | MIC [12]: 15.6 µg/mL (≈ 23.9 µM) | MIC [13]: 15.6 µg/mL (≈ 23.9 µM) | MIC [14]: 3.9 µg/mL (≈ 5.98 µM)

Cc1cccc2c(=O)c3ccc(OCC(O)CNC(C)C)cc3oc12 (centres undefined)
MIC [6]: < 20 µg/mL

O=C1c2cccc(O)c2C(=O)c2c(O)cc(CO)cc21 [ALOE-EMODIN]
MIC [15]: 6.25 µg/mL (≈ 23.1 µM) | MIC [16]: 2.5 µg/mL (≈ 9.25 µM) | MIC [17]: 250 µg/mL (≈ 925 µM) | MIC [18]: 4 µg/mL | MIC [19]: 125 µg/mL (≈ 463 µM)

Cc1cc(O)c2c(c1)C(=O)c1cccc(O)c1C2=O [CHRYSOPHANOL]
MIC [20]: 1000 µg/mL (≈ 3930 µM) | MIC [21]: 200 µg/mL (≈ 787 µM) | inhibition zone (IZ) [22]: 18 mm | MIC [23]: 50 µg/mL | MIC [24]: > 250 µg/mL | MIC [25]: > 250 µg/mL | MIC [26]: 625 µg/mL (≈ 2460 µM) | MIC [27]: > 250 µg/mL | MIC [28]: 128 µg/mL (≈ 503 µM) | inhibition zone (IZ) [29]: 18 mm | MIC [30]: 90 µg/mL (≈ 354 µM) | MIC [31]: > 250 µg/mL | MIC [32]: 125 µg/mL (≈ 492 µM) | MIC [33]: > 250 µg/mL | MIC [34]: 200 µg/mL (≈ 787 µM) | MIC [35]: 64 µg/mL | MIC [36]: 50 µg/mL (≈ 197 µM) | MIC [37]: 128 µg/mL (≈ 503 µM) | MIC [38]: 3.13 µg/mL | MIC [39]: 75 µg/mL (≈ 295 µM) | MIC [40]: 156 µg/mL (≈ 614 µM)

Cc1cc(O)c2c(c1)C(=O)c1cc(O)cc(O)c1C2=O [EMODIN]
MIC [41]: 32 µg/mL (≈ 118 µM) | MIC [42]: 64 µg/mL (≈ 237 µM) | MIC [43]: > 128 µg/mL | MIC [44]: 0.5 µg/mL (≈ 1.85 µM) | MIC [45]: 0.125 µg/mL (≈ 0.463 µM) | MIC [46]: 0.125 µg/mL (≈ 0.463 µM) | MIC [47]: > 128 µg/mL | MIC [30]: 20 µg/mL (≈ 74 µM) | MIC [48]: 16 µg/mL (≈ 59.2 µM) | MIC [49]: 128 µg/mL (≈ 474 µM) | MIC [50]: 0.9 µg/mL (≈ 3.33 µM) | MIC [51]: > 128 µg/mL | MIC [52]: 128 µg/mL (≈ 474 µM) | MIC [53]: 4 µg/mL (≈ 14.8 µM) | MIC [54]: 8 µg/mL (≈ 29.6 µM)

COc1cc(O)c2c(c1)C(=O)c1cc(C)cc(O)c1C2=O [PHYSCION]
MIC [30]: 90 µg/mL (≈ 317 µM)

O=C1c2ccccc2C(=O)c2c(O)c(O)cc(O)c21 [PURPURIN]
IC50 [55]: 300 nM
